For the test, the target named is recombinant IL4I1 (Homo sapiens (Human), UniProt Q96RQ9). The test can be described thus: IL4I1 Enzymatic Assay (Amplex Red/HRP coupled fluorescence detection of H2O2). The format is biochemical. The note with it: 240 min; recombinant IL4I1, four-hour pre-incubation with compound. Summed up: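 Recombinant human IL4I1 (1 nM final) pre-incubated 4 h with compound at ambient temperature in 50 mM Hepes pH 7.0, 0.005% Tween20. Started with 1 mM each Phe/Tyr/Trp plus Amplex Red/HRP; H2O2-derived resorufin fluorescence read after 120 min; EC50 from ten-point 1:3 titration, four-parameter fit.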
recombinant IL4I1, sequence (Q96RQ9 22-567): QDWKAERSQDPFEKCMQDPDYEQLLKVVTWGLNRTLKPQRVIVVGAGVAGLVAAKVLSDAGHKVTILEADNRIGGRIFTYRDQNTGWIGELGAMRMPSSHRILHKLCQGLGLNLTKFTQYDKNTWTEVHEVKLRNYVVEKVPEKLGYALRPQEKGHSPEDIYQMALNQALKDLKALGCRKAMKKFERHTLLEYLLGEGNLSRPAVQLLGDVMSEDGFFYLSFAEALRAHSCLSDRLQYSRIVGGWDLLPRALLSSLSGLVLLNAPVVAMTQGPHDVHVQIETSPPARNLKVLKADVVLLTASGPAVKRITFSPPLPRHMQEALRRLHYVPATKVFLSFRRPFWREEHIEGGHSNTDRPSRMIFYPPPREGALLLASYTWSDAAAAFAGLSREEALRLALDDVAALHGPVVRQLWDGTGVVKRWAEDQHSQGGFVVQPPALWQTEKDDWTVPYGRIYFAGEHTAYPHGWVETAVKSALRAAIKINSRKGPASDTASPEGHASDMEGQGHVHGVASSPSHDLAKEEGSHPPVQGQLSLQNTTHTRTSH
Regarding `[2H]c1c([2H])c([2H])c(-c2ccc(CN3CCN(C4CCC4)C(=O)C3=O)nn2)c([2H])c1[2H]` [Example 80, 1-cyclobutyl-4-((6-(phenyl-d5)pyridazin-3-yl)methyl)piperazine-2,3-dione], the EC50 was found to be 15 nM.

For the molecule `O=C1C(=O)N(C2CCC2)CCN1Cc1ccc(-c2cc(Br)ccc2F)nn1` [Example 81, 1-((6-(5-bromo-2-fluorophenyl)pyridazin-3-yl)methyl)-4-cyclobutylpiperazine-2,3-dione], the EC50 was 60 nM.

`CC1(n2ccn(Cc3nnc(-c4cccc(F)c4)s3)c(=O)c2=O)CCC1` [Example 82, 1-((5-(3-fluorophenyl)-1,3,4-thiadiazol-2-yl)methyl)-4-(1-methylcyclobutyl)-1,4-dihydropyrazine-2,3-dione]: the concentration giving a half-maximal response (EC50) came to 10 nM.

Turning to `CC1(n2ccn(Cc3nnc(-c4ccc(F)cc4)s3)c(=O)c2=O)CCC1` [Example 83, 1-((5-(4-fluorophenyl)-1,3,4-thiadiazol-2-yl)methyl)-4-(1-methylcyclobutyl)-1,4-dihydropyrazine-2,3-dione], the EC50 came out at 8 nM.

For the molecule `Cc1ccccc1-c1nnc(CN2CCN(C34CC(C3)C4)C(=O)C2=O)s1` [Example 84, 1-(bicyclo[1.1.1]pentan-1-yl)-4-((5-(o-tolyl)-1,3,4-thiadiazol-2-yl)methyl)piperazine-2,3-dione], the EC50 worked out at 13 nM.

In the case of `O=c1c(=O)n(C23CC(C2)C3)ccn1Cc1ccc(-c2cccnc2)nn1` [Example 85, 1-(bicyclo[1.1.1]pentan-1-yl)-4-((6-(pyridin-3-yl)pyridazin-3-yl)methyl)-1,4-dihydropyrazine-2,3-dione], the half-maximal effective concentration (EC50) is 29 nM.

Consider `O=c1c(=O)n(C23CC(C2)C3)ccn1Cc1ccc(-c2ccccn2)cn1` [Example 86, 1-([2,3′-bipyridin]-6′-ylmethyl)-4-(bicyclo[1.1.1]pentan-1-yl)-1,4-dihydropyrazine-2,3-dione], for which the EC50 is 27 nM.

With `CC1(n2ccn(Cc3ccc(-c4ccccn4)nn3)c(=O)c2=O)CC1` [Example 87, 1-(1-methylcyclopropyl)-4-((6-(pyridin-2-yl)pyridazin-3-yl)methyl)-1,4-dihydropyrazine-2,3-dione], the EC50 worked out at 87 nM.

As to `CC1(n2ccn(Cc3ccc(-c4ccccn4)cn3)c(=O)c2=O)CC1` [Example 88, 1-([2,3′-bipyridin]-6′-ylmethyl)-4-(1-methylcyclopropyl)-1,4-dihydropyrazine-2,3-dione], the EC50 is 69 nM.

As to `N#CC1(n2ccn(Cc3ccc(-c4cccnc4)nn3)c(=O)c2=O)CC1` [Example 89, 1-(2,3-dioxo-4-((6-(pyridin-3-yl)pyridazin-3-yl)methyl)-3,4-dihydropyrazin-1(2H)-yl)cyclopropane-1-carbonitrile], the EC50 came to 32 nM.

For the molecule `CC1(n2ccn(Cc3ccc(-c4cccnc4)nn3)c(=O)c2=O)CC1` [Example 90, 1-(1-methylcyclopropyl)-4-((6-(pyridin-3-yl)pyridazin-3-yl)methyl)-1,4-dihydropyrazine-2,3-dione], the concentration for a half-maximal effect (EC50) was 63 nM.

`N#CC1(n2ccn(Cc3ccc(-c4ccccn4)nn3)c(=O)c2=O)CC1` [Example 91, 1-(2,3-dioxo-4-((6-(pyridin-2-yl)pyridazin-3-yl)methyl)-3,4-dihydropyrazin-1(2H)-yl)cyclopropane-1-carbonitrile]: the EC50 was found to be 162 nM.

As for `N#CC1(n2ccn(Cc3ccc(-c4ccccn4)cn3)c(=O)c2=O)CC1` [Example 92, 1-(4-([2,3′-bipyridin]-6′-ylmethyl)-2,3-dioxo-3,4-dihydropyrazin-1(2H)-yl)cyclopropane-1-carbonitrile], the EC50 is 155 nM.

On to `O=c1c(=O)n(C23CC(C2)C3)ccn1Cc1ccc(-c2ccccn2)nn1` [Example 93, 1-(bicyclo[1.1.1]pentan-1-yl)-4-((6-(pyridin-2-yl)pyridazin-3-yl)methyl)-1,4-dihydropyrazine-2,3-dione], for which the EC50 came out at 31 nM.

Regarding `CC1(n2ccn(Cc3ccc(-c4cncs4)nn3)c(=O)c2=O)CC1` [Example 94, 1-(1-methylcyclopropyl)-4-((6-(thiazol-5-yl)pyridazin-3-yl)methyl)-1,4-dihydropyrazine-2,3-dione], the EC50 is 35 nM.

Take `O=c1c(=O)n(C23CC(C2)C3)ccn1Cc1ccc(-c2cncs2)nn1` [Example 95, 1-(bicyclo[1.1.1]pentan-1-yl)-4-((6-(thiazol-5-yl)pyridazin-3-yl)methyl)-1,4-dihydropyrazine-2,3-dione]: the concentration for a half-maximal effect (EC50) was 16 nM.

Take `O=C1C(=O)N([C@H]2C[C@H](c3ccccc3)C2)CCN1Cc1ccc(-c2ccccc2)nn1` [Example 96A, trans-1-(3-phenylcyclobutyl)-4-((6-phenylpyridazin-3-yl)methyl)piperazine-2,3-dione]: the EC50 is 14 nM.

For `O=C1C(=O)N([C@H]2C[C@@H](c3ccccc3)C2)CCN1Cc1ccc(-c2ccccc2)nn1` [Example 96B, cis-1-(3-phenylcyclobutyl)-4-((6-phenylpyridazin-3-yl)methyl)piperazine-2,3-dione], the concentration giving a half-maximal response (EC50) is 8 nM.

Regarding `O=C1C(=O)N(C2CCCC2)CCN1Cc1ccc(-c2ccccc2)nc1` [Example 97, 1-cyclopentyl-4-((6-phenylpyridin-3-yl)methyl)piperazine-2,3-dione], the EC50 turned out to be 5 nM.

Consider `O=C1C(=O)N(C2CCCC2)CCN1Cc1ccc(-c2ccccc2)cn1` [Example 98, 1-cyclopentyl-4-((5-phenylpyridin-2-yl)methyl)piperazine-2,3-dione], for which the 50% effective concentration (EC50) amounted to 12 nM.

In the case of `O=C1C(=O)N(C2CCCC2)CCN1Cc1ccc(-c2ccccc2)cc1F` [Example 100, 1-cyclopentyl-4-((3-fluoro-[1,1′-biphenyl]-4-yl)methyl)piperazine-2,3-dione], the EC50 was found to be 8 nM.

`O=C1C(=O)N(C2CCCC2)CCN1Cc1ncc(-c2ccccc2)cc1F` [Example 101, 1-cyclopentyl-4-((3-fluoro-5-phenylpyridin-2-yl)methyl)piperazine-2,3-dione]: the concentration giving a half-maximal response (EC50) came out at 8 nM.

Take `O=C1C(=O)N(C2CCCC2)CCN1Cc1cnc(-c2ccccc2)c(F)c1` [Example 102, 1-cyclopentyl-4-((5-fluoro-6-phenylpyridin-3-yl)methyl)piperazine-2,3-dione]: the EC50 was 14 nM.

As for `O=C1C(=O)N(C2CCCC2)CCN1Cc1cnc(-c2ccccc2)nn1` [Example 103, 1-cyclopentyl-4-((3-phenyl-1,2,4-triazin-6-yl)methyl)piperazine-2,3-dione], the concentration for a half-maximal effect (EC50) was 11 nM.

Regarding `O=C1C(=O)N(C2CCCC2)CCN1Cc1cc(-c2ccccc2)on1` [Example 104, 1-cyclopentyl-4-((5-phenylisoxazol-3-yl)methyl)piperazine-2,3-dione], the EC50 stood at 4 nM.

Turning to `O=C1C(=O)N(C2CCC2)CCN1Cc1cc(-c2ccccc2)on1` [Example 105, 1-cyclobutyl-4-((5-phenylisoxazol-3-yl)methyl)piperazine-2,3-dione], the concentration giving a half-maximal response (EC50) was 2 nM.

For `O=C1C(=O)N(C2CCC2)CCN1Cc1ncc(-c2ccccc2)cc1F` [Example 106, 1-cyclobutyl-4-((3-fluoro-5-phenylpyridin-2-yl)methyl)piperazine-2,3-dione], the EC50 was 7 nM.

Take `O=C1C(=O)N(C2CCC2)CCN1Cc1cnc(-c2ccccc2)nc1` [Example 107, 1-cyclobutyl-4-((2-phenylpyrimidin-5-yl)methyl)piperazine-2,3-dione]: the EC50 came to 13 nM.

These data come from patent US20240246937A1 (MERCK SHARP & DOHME LLC, priority 2021, published 2024).
